Assay results taken from patent US9113629B2, “4-amino-6-(4-substituted-phenyl)-picolinates and 6-amino-2-(4-substituted-phenyl)-pyrimidine-4-carboxylates and their use as herbicides” (DOW AGROSCIENCES LLC, priority 2013, dated 2015).
Read-outs that look alike come from different tables or passages of the source.

Columns and labels:
[1] = test system: Key Broadleaf Weed and Crop Species; assay: Post-emergent Test II herbicidal activity (Table 5); assay type: in vivo; conditions: post-emergence, 336 h, 14 days after application; for pest or weed control at 70 g/ha: application rate 70 g ai/ha; for pest or weed control at 140 g/ha: application rate 140 g ai/ha
Procedure, shortened: (§1)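 Injury was rated visually 14 d after treatment on a 0–100% scale against untreated controls. Test compounds, formulated with crop oil concentrate and surfactant and serially diluted down to 1/16× of the top rate, were applied by track sprayer at 187 L/ha onto first- to second-true-leaf seedlings.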

[2] = test system: Key Grass and Sedge Weeds as well as Grass Crops; assay: Post-emergent Test II herbicidal activity (Table 6); assay type: in vivo; conditions: post-emergence, 336 h; for pest or weed control at 70 g/ha: 70 g ai/ha; for pest or weed control at 140 g/ha: 140 g ai/ha
Procedure, shortened: as §1

[3] = ABUTH: velvetleaf (Abutilon theophrasti), read-out: Visual Growth Reduction (%) 14 Days After Application, ABUTH
[4] = AMARE: redroot pigweed (Amaranthus retroflexus), read-out: Visual Growth Reduction (%) 14 Days After Application, AMARE
[5] = BRSNN: oilseed-rape, canola (Brassica napus), read-out: Visual Growth Reduction (%) 14 Days After Application, BRSNN
[6] = CHEAL: lambsquarters (Chenopodium album), read-out: Visual Growth Reduction (%) 14 Days After Application, CHEAL
[7] = EPHHL: wild poinsettia (Euphorbia heterophylla), read-out: Visual Growth Reduction (%) 14 Days After Application, EPHHL
[8] = HELAN: sunflower (Helianthus annuus), read-out: Visual Growth Reduction (%) 14 Days After Application, HELAN
[9] = VIOTR: wild pansy (Viola tricolor), read-out: Visual Growth Reduction (%) 14 Days After Application, VIOTR
[10] = CYPES: yellow nutsedge (Cyperus esculentus), read-out: Visual Growth Reduction (%) 14 Days After Application, CYPES
[11] = DIGSA: crabgrass (Digitaria sanguinalis), read-out: Visual Growth Reduction (%) 14 Days After Application, DIGSA
[12] = ECHCG: barnyardgrass (Echinochloa crus-galli), read-out: Visual Growth Reduction (%) 14 Days After Application, ECHCG
[13] = ORYSA: rice (Oryza sativa), crop, read-out: Visual Growth Reduction (%) 14 Days After Application, ORYSA
[14] = SETFA: giant foxtail (Setaria faberi), read-out: Visual Growth Reduction (%) 14 Days After Application, SETFA
[15] = SORVU: grain sorghum (Sorghum vulgare), read-out: Visual Growth Reduction (%) 14 Days After Application, SORVU
[16] = TRZSS (wheat, Triticum aestivum), crop, read-out: Visual Growth Reduction (%) 14 Days After Application, TRZSS
[17] = ZEAMX: maize, corn (Zea mays), crop, read-out: Visual Growth Reduction (%) 14 Days After Application, ZEAMX

`COc1c(N)nc(-c2ccc(Br)cc2)nc1C(=O)O` [Compound 54] was tested, and the pest or weed control at 70 g/ha [1, 3] was 85 to 94%, the pest or weed control at 140 g/ha [1, 3] was 85 to 94% and the pest or weed control at 70 g/ha [1, 4] was 95 to 100%. It also gave a pest or weed control at 140 g/ha [1, 4] of 95 to 100%, a pest or weed control at 70 g/ha [1, 5] of 95 to 100% and a pest or weed control at 140 g/ha [1, 5] of 95 to 100%. For the same molecule, the pest or weed control at 70 g/ha [1, 6] was 95 to 100%, the pest or weed control at 140 g/ha [1, 6] was 95 to 100% and the pest or weed control at 70 g/ha [1, 7] was 95 to 100%. For the same molecule, the pest or weed control at 140 g/ha [1, 7] was 95 to 100%, the pest or weed control at 70 g/ha [1, 8] was 85 to 94% and the pest or weed control at 140 g/ha [1, 8] was 95 to 100%. For the same molecule, the pest or weed control at 70 g/ha [1, 9] was 30 to 44%, the pest or weed control at 140 g/ha [1, 9] was 45 to 59% and the pest or weed control at 70 g/ha [2, 10] was 45 to 59%. The pest or weed control at 140 g/ha [2, 10] was 95 to 100%, the pest or weed control at 70 g/ha [2, 11] was 0 to 29% and the pest or weed control at 140 g/ha [2, 11] was 60 to 74%. For the same molecule, the pest or weed control at 70 g/ha [2, 12] was 95 to 100%, the pest or weed control at 140 g/ha [2, 12] was 95 to 100% and the pest or weed control at 70 g/ha [2, 13] was 0 to 29%. It also gave a pest or weed control at 140 g/ha [2, 13] of 0 to 29%, a pest or weed control at 70 g/ha [2, 14] of 75 to 84% and a pest or weed control at 140 g/ha [2, 14] of 75 to 84%. The pest or weed control at 70 g/ha [2, 15] was 60 to 74%, the pest or weed control at 140 g/ha [2, 15] was 75 to 84% and the pest or weed control at 70 g/ha [2, 16] was 45 to 59%. It also gave a pest or weed control at 140 g/ha [2, 16] of 45 to 59%, a pest or weed control at 70 g/ha [2, 17] of 95 to 100% and a pest or weed control at 140 g/ha [2, 17] of 95 to 100%.
